Structures can show the parent of a compound that is named as a salt.
Target: TrkA (Homo sapiens (Human), UniProt P04629)
Assay: TrkA Omnia Assay
Type: biochemical
Details: averaged IC50; 20 nM enzyme, 500 μM ATP, 10 μM peptide substrate
Summary of the method: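 Recombinant TrkA (20 nM) preincubated 10 min at ambient temperature with compound, then Omnia Tyr Peptide #4 (10 μM) and ATP (500 μM) added in 25 mM MOPS pH 7.5, 5 mM MgCl2, 0.005% Triton X-100. Fluorescence (ex 360/em 485 nm) followed continuously for 70 min; IC50 from initial rates by 4- or 5-parameter logistic fit.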

Sequence of TrkA (P04629 33-796): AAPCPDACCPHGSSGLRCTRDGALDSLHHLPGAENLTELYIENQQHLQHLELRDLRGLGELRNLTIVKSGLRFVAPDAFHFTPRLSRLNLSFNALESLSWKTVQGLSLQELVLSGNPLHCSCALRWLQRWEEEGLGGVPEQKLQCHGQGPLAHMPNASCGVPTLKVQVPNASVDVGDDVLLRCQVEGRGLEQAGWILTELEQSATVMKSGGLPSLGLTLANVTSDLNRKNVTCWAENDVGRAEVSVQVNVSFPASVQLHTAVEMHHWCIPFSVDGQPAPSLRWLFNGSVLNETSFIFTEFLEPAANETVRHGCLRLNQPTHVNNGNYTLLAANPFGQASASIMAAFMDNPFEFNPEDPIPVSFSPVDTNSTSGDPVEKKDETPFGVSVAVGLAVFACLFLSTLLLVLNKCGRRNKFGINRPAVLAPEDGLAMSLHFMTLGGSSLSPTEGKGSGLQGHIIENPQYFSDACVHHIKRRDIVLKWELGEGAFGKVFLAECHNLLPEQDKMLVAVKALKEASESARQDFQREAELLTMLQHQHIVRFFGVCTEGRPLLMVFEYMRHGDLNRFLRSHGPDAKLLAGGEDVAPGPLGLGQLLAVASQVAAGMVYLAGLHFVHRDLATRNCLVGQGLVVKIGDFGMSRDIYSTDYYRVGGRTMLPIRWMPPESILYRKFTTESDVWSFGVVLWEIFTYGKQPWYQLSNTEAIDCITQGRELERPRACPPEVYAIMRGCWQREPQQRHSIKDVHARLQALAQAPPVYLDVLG

Compound	IC50
COCCN1C[C@@H](NC(=O)Nc2c(C(F)(F)F)c(OC)nn2-c2ccccc2)[C@H](c2cc(F)cc(F)c2)C1 [Example 606, 1-((3S,4R)-4-(3,5-difluorophenyl)-1-(2-methoxyethyl)pyrrolidin-3-yl)-3-(3-methoxy-1-phenyl-4-(trifluoromethyl)-1H-pyrazol-5-yl)urea]	< 100 nM
COCCN1C[C@@H](NC(=O)Nc2c(C(F)(F)F)c(OC)nn2-c2ccccc2)[C@H](c2ccc(F)cc2)C1 [Example 607, 1-((3S,4R)-4-(4-fluorophenyl)-1-(2-methoxyethyl)pyrrolidin-3-yl)-3-(3-methoxy-1-phenyl-4-(trifluoromethyl)-1H-pyrazol-5-yl)urea]	< 100 nM
COCCN1C[C@@H](NC(=O)Nc2c(C)c(-c3cn(C)cn3)nn2-c2ccccc2)[C@H](c2ccc(F)c(F)c2)C1 [Example 608, 1-((3S,4R)-4-(3,4-difluorophenyl)-1-(2-methoxyethyl)pyrrolidin-3-yl)-3-(4-methyl-3-(1-methyl-1H-imidazol-4-yl)-1-phenyl-1H-pyrazol-5-yl)urea]	< 100 nM
COCCN1C[C@@H](NC(=O)Nc2c(C)c(=O)[nH]n2-c2ccccc2)[C@H](c2cc(F)cc(F)c2)C1 [Example 611, 1-((3S,4R)-4-(3,5-difluorophenyl)-1-(2-methoxyethyl)pyrrolidin-3-yl)-3-(4-methyl-5-oxo-2-phenyl-2,5-dihydro-1H-pyrazol-3-yl)urea]	< 100 nM
COCCN1C[C@@H](NC(=O)Nc2c(C)c(=O)[nH]n2-c2ccccc2)[C@H](c2cc(F)c(F)c(F)c2)C1 [Example 612, 1-((3S,4R)-1-(2-methoxyethyl)-4-(3,4,5-trifluorophenyl)pyrrolidin-3-yl)-3-(4-methyl-5-oxo-2-phenyl-2,5-dihydro-1H-pyrazol-3-yl)urea]	< 100 nM
COCCN1C[C@@H](NC(=O)Nc2c(C)c(=O)[nH]n2-c2ccccc2)[C@H](c2cccc(F)c2)C1 [Example 613, 1-((3S,4R)-4-(3-fluorophenyl)-1-(2-methoxyethyl)pyrrolidin-3-yl)-3-(4-methyl-5-oxo-2-phenyl-2,5-dihydro-1H-pyrazol-3-yl)urea]	< 100 nM
COCCN1C[C@@H](NC(=O)Nc2c(C#N)c(OC)nn2-c2ccccc2)[C@H](c2ccc(F)c(F)c2)C1 [Example 615, 1-(4-cyano-3-methoxy-1-phenyl-1H-pyrazol-5-yl)-3-((3S,4R)-4-(3,4-difluorophenyl)-1-(2-methoxyethyl)pyrrolidin-3-yl)urea]	< 100 nM
CCc1nn(-c2ccccc2)c(NC(=O)N[C@@H]2CN(CCOC)C[C@H]2c2ccc(F)c(F)c2)c1C#N [Example 616, 1-(4-cyano-3-ethyl-1-phenyl-1H-pyrazol-5-yl)-3-((3S,4R)-4-(3,4-difluorophenyl)-1-(2-methoxyethyl)pyrrolidin-3-yl)urea.]	< 100 nM
COCCN1C[C@@H](NC(=O)Nc2c(C#N)c(C(F)(F)F)nn2-c2ccccc2)[C@H](c2ccc(F)c(F)c2)C1 [Example 617, 1-(4-cyano-1-phenyl-3-(trifluoromethyl)-1H-pyrazol-5-yl)-3-((3S,4R)-4-(3,4-difluorophenyl)-1-(2-methoxyethyl)pyrrolidin-3-yl)urea]	< 100 nM
COCCN1C[C@@H](NC(=O)Nc2c(C#N)c(=O)[nH]n2-c2ccccc2)[C@H](c2ccc(F)c(F)c2)C1 [Example 618, 1-(4-cyano-5-oxo-2-phenyl-2,5-dihydro-1H-pyrazol-3-yl)-3-((3S,4R)-4-(3,4-difluorophenyl)-1-(2-methoxyethyl)pyrrolidin-3-yl)urea]	< 100 nM
COCCN1C[C@@H](NC(=O)Nc2c(C(N)=O)c(OC)nn2-c2ccccc2)[C@H](c2ccc(F)c(F)c2)C1 [Example 619, 5-(3-((3S,4R)-4-(3,4-difluorophenyl)-1-(2-methoxyethyl)pyrrolidin-3-yl)ureido)-3-methoxy-1-phenyl-1H-pyrazole-4-carboxamide]	< 100 nM
COCCN1C[C@@H](NC(=O)Nc2c(C(N)=O)c(C)nn2-c2ccccc2)[C@H](c2ccc(F)c(F)c2)C1 [Example 620, 5-(3-((3S,4R)-4-(3,4-difluoro-phenyl)-1-(2-methoxyethyl)pyrrolidin-3-yl)ureido)-3-methyl-1-phenyl-1H-pyrazole-4-carboxamide]	< 100 nM
CCc1nn(-c2ccccc2)c(NC(=O)N[C@@H]2CN(CCOC)C[C@H]2c2ccc(F)c(F)c2)c1C(N)=O [Example 621, 5-(3-((3S,4R)-4-(3,4-difluorophenyl)-1-(2-methoxyethyl)pyrrolidin-3-yl)ureido)-3-ethyl-1-phenyl-1H-pyrazole-4-carboxamide]	< 100 nM
COCCN1C[C@@H](NC(=O)Nc2c(C(N)=O)c(C(F)(F)F)nn2-c2ccccc2)[C@H](c2ccc(F)c(F)c2)C1 [Example 622, 5-(3-((3S,4R)-4-(3,4-difluorophenyl)-1-(2-methoxyethyl)pyrrolidin-3-yl)ureido)-1-phenyl-3-(trifluoromethyl)-1H-pyrazole-4-carboxamide]	< 100 nM
COCCN1C[C@@H](NC(=O)Nc2c(C(N)=O)c(C)nn2-c2ccccc2)[C@H](c2cc(F)cc(F)c2)C1 [Example 626, 5-(3-((3S,4R)-4-(3,5-difluorophenyl)-1-(2-methoxyethyl)pyrrolidin-3-yl)ureido)-3-methyl-1-phenyl-1H-pyrazole-4-carboxamide]	< 100 nM
COCCN1C[C@@H](NC(=O)Nc2c(C(N)=O)cnn2-c2ccccc2)[C@H](c2ccc(F)c(F)c2)C1 [Example 627, 5-(3-((3S,4R)-4-(3,4-difluorophenyl)-1-(2-methoxyethyl)pyrrolidin-3-yl)ureido)-1-phenyl-1H-pyrazole-4-carboxamide]	< 100 nM
COCCN1C[C@@H](NC(=O)Nc2c(C(N)=O)c(C(F)F)nn2-c2ccccc2)[C@H](c2ccc(F)c(F)c2)C1 [Example 628, 3-(difluoromethyl)-5-(3-((3S,4R)-4-(3,4-difluorophenyl)-1-(2-methoxyethyl)pyrrolidin-3-yl)ureido)-1-phenyl-1H-pyrazole-4-carboxamide]	< 100 nM
COCCN1C[C@@H](NC(=N)Nc2c(Br)c(C)nn2-c2ccccc2)[C@H](c2ccc(F)c(F)c2)C1 [Example 629, 1-(4-bromo-3-methyl-1-phenyl-1H-pyrazol-5-yl)-3-((3S,4R)-4-(3,4-difluorophenyl)-1-(2-methoxyethyl)pyrrolidin-3-yl)guanidine dihydrochloride]	1000 to 10000 nM
COCCN1C[C@@H](NC(=S)Nc2c(Br)c(C)nn2-c2ccccc2)[C@H](c2ccc(F)c(F)c2)C1 [Example 630, 1-(4-bromo-3-methyl-1-phenyl-1H-pyrazol-5-yl)-3-((3S,4R)-4-(3,4-difluorophenyl)-1-(2-methoxyethyl)pyrrolidin-3-yl)thiourea]	< 100 nM
COCCN1C[C@@H](NC(=S)Nc2c(C)c(-c3ccc(=O)n(C)c3)nn2-c2ccccc2)[C@H](c2ccc(F)c(F)c2)C1 [Example 631, 1-((3S,4R)-4-(3,4-difluorophenyl)-1-(2-methoxyethyl)pyrrolidin-3-yl)-3-(4-methyl-3-(1-methyl-6-oxo-1,6-dihydropyridin-3-yl)-1-phenyl-1H-pyrazol-5-yl)thiourea]	< 100 nM
COCCN1C[C@@H](NC(=S)Nc2c(C)c(-c3cnn(C)c3)nn2-c2ccccc2)[C@H](c2ccc(F)c(F)c2)C1 [Example 632, 1-((3S,4R)-4-(3,4-difluorophenyl)-1-(2-methoxyethyl)pyrrolidin-3-yl)-3-(1′,4-dimethyl-1-phenyl-1H,1′H-3,4′-bipyrazol-5-yl)thiourea]	< 100 nM
COCCN1C[C@@H](NC(=S)Nc2c(C)c(-c3cnn(C)c3)nn2-c2ccccc2)[C@H](c2ccc(F)cc2)C1 [Example 633, 1-((3S,4R)-4-(4-fluorophenyl)-1-(2-methoxyethyl)pyrrolidin-3-yl)-3-(1′,4-dimethyl-1-phenyl-1H, 1′H-3,4′-bipyrazol-5-yl)thiourea]	< 100 nM
COCCN1CC(c2ccccc2)[C@H](NC(=O)Nc2c(-c3ccccc3)nn3ccccc23)C1 (stereo partly drawn) [Example 634]	< 100 nM
COCCN1C[C@@H](NC(=O)Nc2c(-c3ccccc3)nn3ccccc23)[C@H](c2ccc(F)c(F)c2)C1 [Example 635, 1-((3S,4R)-4-(3,4-difluorophenyl)-1-(2-methoxyethyl)pyrrolidin-3-yl)-3-(2-phenylpyrazolo[1,5-a]pyridin-3-yl)urea]	< 100 nM
COCCN1CC(c2ccccc2)[C@H](NC(=O)Nc2cnn3ccccc23)C1 (stereo partly drawn) [Example 636]	100 to 1000 nM
COCCN1C[C@@H](NC(=O)Nc2cnn3ccccc23)[C@H](c2ccc(F)c(F)c2)C1 [Example 637, 1-((3S,4R)-4-(3,4-difluorophenyl)-1-(2-methoxyethyl)pyrrolidin-3-yl)-3-(pyrazolo[1,5-a]pyridin-3-yl)urea]	< 100 nM
COCCN1C[C@@H](NC(=O)Nc2c(-c3ccccc3)nn(-c3cnccn3)c2C)[C@H](c2ccc(F)c(F)c2)C1 [Example 638, 1-((3S,4R)-4-(3,4-difluorophenyl)-1-(2-methoxyethyl)pyrrolidin-3-yl)-3-(5-methyl-3-phenyl-1-(pyrazin-2-yl)-1H-pyrazol-4-yl)urea]	< 100 nM
COCCN1C[C@@H](NC(=O)Nc2c(-c3ccccc3)nn(C)c2C)[C@H](c2ccc(F)c(F)c2)C1 [Example 639, 1-((3S,4R)-4-(3,4-difluorophenyl)-1-(2-methoxyethyl)pyrrolidin-3-yl)-3-(1,5-dimethyl-3-phenyl-1H-pyrazol-4-yl)urea]	< 100 nM
COCCN1C[C@@H](NC(=O)Nc2c(-c3ccccc3)nn(C)c2C)[C@H](c2cc(F)cc(F)c2)C1 [Example 640, 1-((3S,4R)-4-(3,5-difluorophenyl)-1-(2-methoxyethyl)pyrrolidin-3-yl)-3-(1,5-dimethyl-3-phenyl-1H-pyrazol-4-yl)urea]	< 100 nM
COCCN1C[C@@H](NC(=O)Nc2c(-c3ccccc3)nn(C(C)C)c2C)[C@H](c2ccc(F)c(F)c2)C1 [Example 641, 1-((3S,4R)-4-(3,4-difluorophenyl)-1-(2-methoxyethyl)pyrrolidin-3-yl)-3-(1-isopropyl-5-methyl-3-phenyl-1H-pyrazol-4-yl)urea]	100 to 1000 nM

Reference: patent US10323022B2, “Pyrrolidinyl urea, pyrrolidinyl thiourea and pyrrolidinyl guanidine compounds as TrkA kinase inhibitors” (Array BioPharma Inc., priority 2011, dated 2019)
